Source: patent publication US10131652B2, “Pyrimidinyloxy benzene derivatives as herbicides” (E. I. DU PONT DE NEMOURS AND COMPANY, priority 2014, dated 2018)
Read-outs that look alike come from different tables or passages of the source.

What was measured:
Test in all cases: Test F pre-/postemergence plant response
Assay type in all cases: in vivo
[1] = system: Brazilian crabgrass (Digitaria horizontalis); conditions: Digitaria horizontalis, scale 0 to 100, read-out: Plant response rating, Crabgrass, Brazil
Method in brief: (§1)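 Two application timings were run side by side: soil surface treatment of freshly planted seed in silt loam, and foliar treatment of seedlings 2 to 18 cm high. Plants stayed in the greenhouse 14 to 21 days before visual 0–100 injury scoring against controls.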

[2] = system: arrowleaf sida (Sida rhombifolia); conditions: Sida rhombifolia, scale 0 to 100, read-out: Plant response rating, Arrowleaf Sida
Method in brief: as §1

[3] = system: goosegrass (Eleusine indica); conditions: Eleusine indica, pre-emergence, scale 0 to 100, read-out: Plant response rating, Goosegrass
Method in brief: as §1

[4] = system: lambsquarters (Chenopodium album); conditions: Chenopodium album, pre-emergence, scale 0 to 100, read-out: Plant response rating, Lambsquarters
Method in brief: as §1

kochia (Kochia scoparia) = conditions: Bassia scoparia, pre-emergence, scale 0 to 100, read-out: Plant response rating, Kochia
Method in brief: as §1

[5] = system: green foxtail (Setaria viridis); conditions: Setaria viridis, pre-emergence, scale 0 to 100, read-out: Plant response rating, Foxtail, Green
Method in brief: as §1

[6] = system: surinam grass (Brachiaria decumbens); conditions: Urochloa decumbens, pre-emergence, scale 0 to 100, read-out: Plant response rating, Surinam Grass
Method in brief: as §1

[7] = system: palmer pigweed (Amaranthus palmeri); conditions: Amaranthus palmeri, scale 0 to 100, read-out: Plant response rating, Pigweed, Palmer
Method in brief: as §1

[8] = system: Italian ryegrass (Lolium multiflorum); conditions: Lolium multiflorum, scale 0 to 100, read-out: Plant response rating, Ryegrass, Italian; for pest or weed control at 16 g/ha: 16 g ai/ha; for pest or weed control at 31 g/ha: 31 g ai/ha; for pest or weed control at 125 g/ha: 125 g ai/ha
Method in brief: as §1

[9] = system: sandbur (southern sandbur, Cenchrus echinatus); conditions: Cenchrus echinatus, scale 0 to 100, read-out: Plant response rating, Sandbur
Method in brief: as §1

[10] = system: nightshade (eastern black nightshade, Solanum ptycanthum); conditions: Solanum, pre-emergence, scale 0 to 100, read-out: Plant response rating, Nightshade
Method in brief: as §1

[11] = system: wild poinsettia (Euphorbia heterophylla); conditions: Euphorbia heterophylla, scale 0 to 100, read-out: Plant response rating, Poinsettia, Wild
Method in brief: as §1

[12] = system: large (Lg) crabgrass (Digitaria sanguinalis); conditions: Digitaria sanguinalis, pre-emergence, scale 0 to 100, read-out: Plant response rating, Crabgrass, Large
Method in brief: as §1

[13] = system: fall panicum (Panicum dichotomiflorum); conditions: Panicum dichotomiflorum, scale 0 to 100, read-out: Plant response rating, Panicum, Fall
Method in brief: as §1

soybean (Glycine max) = conditions: Glycine max, scale 0 to 100, read-out: Plant response rating, Soybean
Method in brief: as §1

corn (Zea mays) = conditions: Zea mays, scale 0 to 100
Method in brief: as §1

[14] = post-emergence, 8 g ai/ha Postemergence
[15] = post-emergence, 16 g ai/ha Postemergence
[16] = post-emergence, 31 g ai/ha Postemergence
[17] = post-emergence, 62 g ai/ha Postemergence
[18] = post-emergence, 125 g ai/ha Postemergence
[19] = pre-emergence, 8 g ai/ha Preemergence
[20] = pre-emergence, 16 g ai/ha Preemergence
[21] = pre-emergence, 31 g ai/ha Preemergence
[22] = pre-emergence, 62 g ai/ha Preemergence
[23] = pre-emergence, 125 g ai/ha Preemergence

FC(F)(F)c1cc(-c2ccccc2Oc2ncc(Cl)cn2)no1 [Compound 200, 5-chloro-2-[2-[5-(trifluoromethyl)-3-isoxazolyl]phenoxy]pyrimidine]
pest or weed control at 8 g/ha [1, 14]: 10% | pest or weed control at 16 g/ha [1, 15]: 10% | pest or weed control at 31 g/ha [1, 16]: 15% | pest or weed control at 62 g/ha [1, 17]: 20% | pest or weed control at 125 g/ha [1, 18]: 20% | pest or weed control at 8 g/ha [1, 19]: 0% | pest or weed control at 16 g/ha [1, 20]: 90% | pest or weed control at 31 g/ha [1, 21]: 98% | pest or weed control at 62 g/ha [1, 22]: 100% | pest or weed control at 125 g/ha [1, 23]: 100% | pest or weed control at 8 g/ha [2, 14]: 65% | pest or weed control at 16 g/ha [2, 15]: 75% | pest or weed control at 31 g/ha [2, 16]: 85% | pest or weed control at 62 g/ha [2, 17]: 95% | pest or weed control at 125 g/ha [2, 18]: 95% | pest or weed control at 8 g/ha [2, 19]: 0% | pest or weed control at 16 g/ha [2, 20]: 65% | pest or weed control at 31 g/ha [2, 21]: 100% | pest or weed control at 62 g/ha [2, 22]: 100% | pest or weed control at 125 g/ha [2, 23]: 100% | pest or weed control at 8 g/ha ([3]; 8 g ai/ha Preemergence): 10% | pest or weed control at 16 g/ha ([3]; 16 g ai/ha Preemergence): 70% | pest or weed control at 31 g/ha ([3]; 31 g ai/ha Preemergence): 80% | pest or weed control at 125 g/ha ([3]; 125 g ai/ha Preemergence): 98% | pest or weed control at 62 g/ha ([3]; Preemergence): 95% | pest or weed control at 8 g/ha ([4]; 8 g ai/ha Preemergence): 0% | pest or weed control at 16 g/ha ([4]; 16 g ai/ha, Preemergence): 0% | pest or weed control at 31 g/ha ([4]; 31 g ai/ha, Preemergence): 98% | pest or weed control at 125 g/ha ([4]; 125 g ai/ha, Preemergence): 100% | pest or weed control at 62 g/ha ([4]; Preemergence): 98% | pest or weed control at 8 g/ha (kochia (Kochia scoparia); 8 g ai/ha Preemergence): 20% | pest or weed control at 16 g/ha (kochia (Kochia scoparia); 16 g ai/ha, Preemergence): 25% | pest or weed control at 31 g/ha (kochia (Kochia scoparia); 31 g ai/ha, Preemergence): 50% | pest or weed control at 125 g/ha (kochia (Kochia scoparia); 125 g ai/ha, Preemergence): 100% | pest or weed control at 62 g/ha (kochia (Kochia scoparia); Preemergence): 80% | pest or weed control at 8 g/ha ([5]; 8 g ai/ha Preemergence): 0% | pest or weed control at 16 g/ha ([5]; 16 g ai/ha, Preemergence): 10% | pest or weed control at 31 g/ha ([5]; 31 g ai/ha, Preemergence): 98% | pest or weed control at 125 g/ha ([5]; 125 g ai/ha, Preemergence): 100% | pest or weed control at 62 g/ha ([5]; Preemergence): 100% | pest or weed control at 8 g/ha ([6]; 8 g ai/ha Preemergence): 0% | pest or weed control at 16 g/ha ([6]; 16 g ai/ha Preemergence): 0% | pest or weed control at 31 g/ha ([6]; 31 g ai/ha Preemergence): 0% | pest or weed control at 125 g/ha ([6]; 125 g ai/ha Preemergence): 35% | pest or weed control at 62 g/ha ([6]; Preemergence): 10% | pest or weed control at 8 g/ha [7, 14]: 85% | pest or weed control at 16 g/ha [7, 15]: 95% | pest or weed control at 31 g/ha [7, 16]: 98% | pest or weed control at 62 g/ha [7, 17]: 100% | pest or weed control at 125 g/ha [7, 18]: 100% | pest or weed control at 8 g/ha [7, 19]: 0% | pest or weed control at 16 g/ha [7, 20]: 85% | pest or weed control at 31 g/ha [7, 21]: 100% | pest or weed control at 125 g/ha [7, 23]: 100% | pest or weed control at 62 g/ha ([7]; pre-emergence, Preemergence): 100% | pest or weed control at 8 g/ha [8, 14]: 0% | pest or weed control at 16 g/ha ([8]; post-emergence, Postemergence): 0% | pest or weed control at 31 g/ha ([8]; post-emergence, Postemergence): 0% | pest or weed control at 62 g/ha ([8]; post-emergence, 62 g ai/ha, Postemergence): 15% | pest or weed control at 125 g/ha ([8]; post-emergence, Postemergence): 20% | pest or weed control at 8 g/ha [8, 19]: 0% | pest or weed control at 16 g/ha ([8]; pre-emergence, Preemergence): 0% | pest or weed control at 31 g/ha ([8]; pre-emergence, Preemergence): 0% | pest or weed control at 125 g/ha ([8]; pre-emergence, Preemergence): 40% | pest or weed control at 62 g/ha ([8]; pre-emergence, Preemergence): 20% | pest or weed control at 8 g/ha [9, 14]: 0% | pest or weed control at 16 g/ha [9, 15]: 0% | pest or weed control at 31 g/ha [9, 16]: 0% | pest or weed control at 62 g/ha [9, 17]: 0% | pest or weed control at 125 g/ha [9, 18]: 5% | pest or weed control at 8 g/ha [9, 19]: 0% | pest or weed control at 16 g/ha [9, 20]: 5% | pest or weed control at 31 g/ha [9, 21]: 5% | pest or weed control at 125 g/ha [9, 23]: 75% | pest or weed control at 62 g/ha ([9]; pre-emergence, Preemergence): 40% | pest or weed control at 8 g/ha ([10]; 8 g ai/ha Preemergence): 0% | pest or weed control at 16 g/ha ([10]; 16 g ai/ha Preemergence): 35% | pest or weed control at 31 g/ha ([10]; 31 g ai/ha Preemergence): 60% | pest or weed control at 125 g/ha ([10]; 125 g ai/ha Preemergence): 98% | pest or weed control at 62 g/ha ([10]; Preemergence): 98% | pest or weed control at 8 g/ha [11, 14]: 35% | pest or weed control at 16 g/ha [11, 15]: 50% | pest or weed control at 31 g/ha [11, 16]: 40% | pest or weed control at 62 g/ha [11, 17]: 60% | pest or weed control at 125 g/ha [11, 18]: 80% | pest or weed control at 8 g/ha [11, 19]: 0% | pest or weed control at 16 g/ha [11, 20]: 0% | pest or weed control at 31 g/ha [11, 21]: 20% | pest or weed control at 125 g/ha [11, 23]: 70% | pest or weed control at 62 g/ha ([11]; pre-emergence, Preemergence): 60% | pest or weed control at 8 g/ha ([12]; 8 g ai/ha Preemergence): 0% | pest or weed control at 16 g/ha ([12]; 16 g ai/ha Preemergence): 50% | pest or weed control at 31 g/ha ([12]; 31 g ai/ha Preemergence): 85% | pest or weed control at 62 g/ha ([12]; 62 g ai/ha Preemergence): 95% | pest or weed control at 125 g/ha ([12]; 125 g ai/ha Preemergence): 100% | pest or weed control at 8 g/ha [13, 14]: 5% | pest or weed control at 16 g/ha [13, 15]: 5% | pest or weed control at 31 g/ha [13, 16]: 5% | pest or weed control at 62 g/ha [13, 17]: 5% | pest or weed control at 125 g/ha [13, 18]: 15% | pest or weed control at 8 g/ha [13, 19]: 0% | pest or weed control at 16 g/ha [13, 20]: 70% | pest or weed control at 31 g/ha [13, 21]: 35% | pest or weed control at 125 g/ha [13, 23]: 100% | pest or weed control at 62 g/ha ([13]; pre-emergence, Preemergence): 98% | plant injury at 8 g/ha (soybean (Glycine max); [14]): 15% | plant injury at 16 g/ha (soybean (Glycine max); [15]): 20% | plant injury at 31 g/ha (soybean (Glycine max); [16]): 40% | plant injury at 62 g/ha (soybean (Glycine max); [17]): 65% | plant injury at 125 g/ha (soybean (Glycine max); [18]): 90% | plant injury at 8 g/ha (soybean (Glycine max); [19]): 0% | plant injury at 16 g/ha (soybean (Glycine max); [20]): 0% | plant injury at 31 g/ha (soybean (Glycine max); [21]): 20% | plant injury at 125 g/ha (soybean (Glycine max); [23]): 50% | plant injury at 62 g/ha (soybean (Glycine max); pre-emergence, Preemergence): 30% | Corn plant response rating (crop injury, 0 = no effect, 100 = complete kill) at 8 g/ha (corn (Zea mays); [14]): 0% | Corn plant response rating (crop injury, 0 = no effect, 100 = complete kill) at 16 g/ha (corn (Zea mays); [15]): 0% | Corn plant response rating (crop injury, 0 = no effect, 100 = complete kill) at 31 g/ha (corn (Zea mays); [16]): 10% | Corn plant response rating (crop injury, 0 = no effect, 100 = complete kill) at 62 g/ha (corn (Zea mays); [17]): 20% | Corn plant response rating (crop injury, 0 = no effect, 100 = complete kill) at 125 g/ha (corn (Zea mays); [18]): 25% | Corn plant response rating (crop injury, 0 = no effect, 100 = complete kill) at 8 g/ha (corn (Zea mays); [19]): 0% | Corn plant response rating (crop injury, 0 = no effect, 100 = complete kill) at 16 g/ha (corn (Zea mays); [20]): 0% | Corn plant response rating (crop injury, 0 = no effect, 100 = complete kill) at 31 g/ha (corn (Zea mays); [21]): 0% | Corn plant response rating (crop injury, 0 = no effect, 100 = complete kill) at 62 g/ha (corn (Zea mays); [22]): 0% | Corn plant response rating (crop injury, 0 = no effect, 100 = complete kill) at 125 g/ha (corn (Zea mays); [23]): 0%
